Test results published in patent US11618744B2, “Benzoimidazoles as prolyl hydroxylase inhibitors” (Janssen Pharmaceutica NV, priority 2008, dated 2023).

Test system: Hep-3B cells
Assay: Cellular assay: erythropoietin (EPO) secretion in Hep-3B cells
Type: cell-based, human
Conditions: 24 h incubation, compound at 100 μM, percentage of EPO secretion of control compound 7-[(4-Chloro-phenyl)-(5-methyl-isoxazol-3-ylamino)-methyl]-quinolin-8-ol

| Structure (SMILES) | Cellular % EPO Stimulation [%] |
| --- | --- |
| Cc1cc2nc(-n3cc(C(=O)O)cn3)[nH]c2cc1C [Example 5, 1-(5,6-Dimethyl-1H-benzoimidazol-2-yl)-1H-pyrazole-4-carboxylic acid] | 2.1 |
| O=C(O)c1cnn(-c2nc3cc(-c4cccc(OCc5ccccc5Cl)c4)ccc3[nH]2)c1 [Example 13, 1-{5-[3-(2-Chloro-benzyloxy)-phenyl]-1H-benzoimidazol-2-yl}-1H-pyrazole-4-carboxylic acid] | 18 |
| O=C(O)c1cnn(-c2nc3cc(-c4cccc(C(F)(F)F)c4)ccc3[nH]2)c1 [Example 17, 1-[5-(3-Trifluoromethyl-phenyl)-1H-benzoimidazol-2-yl]-1H-pyrazole-4-carboxylic acid] | 5.8 |
| O=C(O)c1cnn(-c2nc3ccccc3[nH]2)c1 [Example 1, 1-(1H-Benzoimidazol-2-yl)-1H-pyrazole-4-carboxylic acid] | 7.1 |
| Cc1nn(-c2nc3cc(Cl)c(Cl)cc3[nH]2)c(C)c1C(=O)O [Example 22, 1-(5,6-Dichloro-1H-benzoimidazol-2-yl)-3,5-dimethyl-1H-pyrazole-4-carboxylic acid] | 0.47 |
